According to the supplement of paper PMC6045584:
± gives the standard deviation of the averaged measurements.

Assays:
[1] = compound: CN(C)CC[C@H](CSc1ccccc1)Nc1ccc(S(=O)(=O)NC(=O)c2ccc(N3CCN(Cc4ccccc4-c4ccc(Cl)cc4)CC3)cc2)cc1[N+](=O)[O-] [ABT-737]; experiment: surviving fraction relative to DMSO-only wells; higher = less growth inhibition; conditions: exposure time: 5 days
How it was run: (§1)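 Surviving fraction was calculated by normalising CellTiter-Glo luminescence to the median of DMSO-only wells. Tumour cell lines in log phase were seeded in 384-well plates at 250–500 cells per well, and 24 hours later were exposed continuously for five days to inhibitors at 0.5, 1, 5, 10, 50, 100, 500 and 1000 nM.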

[2] = compound: CS(=O)(=O)CCNCc1ccc(-c2ccc3ncnc(Nc4ccc(OCc5cccc(F)c5)c(Cl)c4)c3c2)o1 [LAPATINIB]; experiment: as above; conditions: exposure time: 5 days
How it was run: as §1

Row | Test System | surviving fraction ([1]; 0.5 nM) | surviving fraction ([1]; 1 nM) | surviving fraction ([1]; 5 nM) | surviving fraction ([1]; 10 nM) | surviving fraction ([1]; 50 nM) | surviving fraction ([1]; 100 nM) | surviving fraction ([1]; 500 nM) | surviving fraction ([1]; 1000 nM) | surviving fraction ([2]; 0.5 nM) | surviving fraction ([2]; 1 nM) | surviving fraction ([2]; 5 nM) | surviving fraction ([2]; 10 nM) | surviving fraction ([2]; 50 nM) | surviving fraction ([2]; 100 nM) | surviving fraction ([2]; 500 nM) | surviving fraction ([2]; 1000 nM)
1 | MDAMB361 BREAST | 0.853 ± 0.098 | 0.812 ± 0.15 | 0.815 ± 0.058 | 0.921 ± 0.11 | 0.871 ± 0.032 | 0.909 ± 0.085 | 0.843 ± 0.055 | 0.846 ± 0.086 | 0.891 ± 0.12 | 0.823 ± 0.11 | 0.902 ± 0.096 | 0.874 ± 0.065 | 0.864 ± 0.028 | 0.711 ± 0.041 | 0.724 ± 0.096 | 0.672 ± 0.069
2 | JURKAT HAEMATOPOIETIC AND LYMPHOID TISSUE | 1.04 ± 0.026 | 1.04 ± 0.029 | 1.05 ± 0.024 | 1.02 ± 0.028 | 0.949 ± 0.025 | 0.932 ± 0.035 | 0.752 ± 0.041 | 0.549 ± 0.0064 | 0.997 ± 0.078 | 1.02 ± 0.061 | 0.936 ± 0.037 | 0.959 ± 0.017 | 0.933 ± 0.055 | 0.947 ± 0.025 | 1.01 ± 0.012 | 1.011 ± 0.0081
3 | SCC003 HEADNECK | 1.11 ± 0.067 | 1.17 ± 0.03 | 1.16 ± 0.032 | 1.09 ± 0.021 | 1.15 ± 0.096 | 1.16 ± 0.1 | 1.19 ± 0.049 | 1.09 ± 0.069 | 1.08 ± 0.05 | 1.13 ± 0.054 | 1.06 ± 0.067 | 1.11 ± 0.079 | 0.963 ± 0.011 | 0.964 ± 0.054 | 0.757 ± 0.015 | 0.64 ± 0.069
4 | HCC78 LUNG | 0.9693 ± 0.0035 | 0.955 ± 0.076 | 0.969 ± 0.1 | 1.08 ± 0.15 | 1.04 ± 0.062 | 0.92 ± 0.2 | 0.967 ± 0.19 | 0.939 ± 0.2 | 0.98 ± 0.029 | 0.972 ± 0.093 | 1.01 ± 0.038 | 0.795 ± 0.26 | 0.82 ± 0.075 | 0.944 ± 0.1 | 0.857 ± 0.12 | 0.872 ± 0.12
5 | MFM223 BREAST | 1.39 ± 0.39 | 1.4 ± 0.37 | 1.36 ± 0.35 | 1.52 ± 0.56 | 1.08 ± 0.091 | 1.05 ± 0.14 | 1.05 ± 0.082 | 1.2 ± 0.054 | 1.18 ± 0.13 | 1.18 ± 0.14 | 1.15 ± 0.027 | 1.13 ± 0.081 | 1.058 ± 0.01 | 1.2 ± 0.034 | 1.02 ± 0.084 | 
6 | HCC202 BREAST | 1.36 ± 0.084 | 1.17 ± 0.2 | 1.07 ± 0.069 | 1.43 ± 0.17 | 1.1 ± 0.16 | 1.31 ± 0.17 | 1.15 ± 0.5 | 0.965 ± 0.018 | 1.3 ± 0.2 | 0.845 ± 0.19 | 1.17 ± 0.43 | 0.937 ± 0.17 | 0.905 ± 0.14 | 0.726 ± 0.31 | 0.383 | 0.221 ± 0.029
7 | HCC1395 BREAST | 1.15 ± 0.075 | 1.14 ± 0.053 | 1.27 ± 0.047 | 1.25 ± 0.061 | 1.19 ± 0.024 | 1.32 ± 0.033 | 1.12 ± 0.069 | 1.1 ± 0.065 | 0.928 ± 0.083 | 0.972 ± 0.072 | 0.998 ± 0.082 | 0.975 ± 0.16 | 0.919 ± 0.12 | 1.09 ± 0.061 | 1.02 ± 0.083 | 0.993 ± 0.15
8 | BT20 BREAST | 1.2 ± 0.061 | 1.19 ± 0.089 | 1.15 ± 0.06 | 1.26 ± 0.06 | 1.14 ± 0.14 | 1.18 ± 0.13 | 1.14 ± 0.043 | 1.07 ± 0.064 | 1.12 ± 0.065 | 1.128 ± 0.0092 | 1.05 ± 0.048 | 1.12 ± 0.05 | 1.14 ± 0.048 | 1.18 ± 0.054 | 1.16 ± 0.045 | 1.38 ± 0.068
9 | U2OS BONE | 1.04 ± 0.048 | 1.04 ± 0.026 | 1.06 ± 0.055 | 1.04 ± 0.012 | 1.08 ± 0.035 | 1.11 ± 0.024 | 1.06 ± 0.029 | 1.02 ± 0.038 | 1.03 ± 0.031 | 1.034 ± 0.0044 | 1.08 ± 0.014 | 1.08 ± 0.027 | 1.03 ± 0.012 | 1.04 ± 0.024 | 0.9533 ± 0.0085 | 0.938 ± 0.037
10 | SG31 HEADNECK | 1.2 ± 0.19 | 1.51 ± 0.051 | 1.08 ± 0.21 | 1.04 ± 0.025 | 1.03 ± 0.18 | 1.2 ± 0.27 | 1.27 ± 0.25 | 1.12 ± 0.11 | 1.17 ± 0.26 | 1.05 ± 0.18 | 0.799 ± 0.1 | 0.948 ± 0.093 | 0.699 ± 0.084 | 1.02 ± 0.27 | 0.775 ± 0.23 | 0.846 ± 0.21
11 | OS25HAL BONE | 0.984 ± 0.048 | 1.07 ± 0.035 | 0.975 ± 0.028 | 1.02 ± 0.025 | 1.06 ± 0.082 | 1.12 ± 0.042 | 0.983 ± 0.045 | 0.882 ± 0.076 | 1.01 ± 0.018 | 1.06 ± 0.018 | 1.06 ± 0.066 | 1 ± 0.024 | 1.05 ± 0.029 | 1.04 ± 0.0055 | 1.09 ± 0.044 | 1.1 ± 0.053
12 | SCC36 HEADNECK | 1.08 ± 0.18 | 1.03 ± 0.054 | 1.15 ± 0.028 | 1.13 ± 0.056 | 1.14 ± 0.14 | 1.12 ± 0.061 | 0.897 ± 0.035 | 0.924 ± 0.11 | 1.03 ± 0.067 | 1.1 ± 0.089 | 1.08 ± 0.062 | 1.11 ± 0.051 | 0.918 ± 0.049 | 0.883 ± 0.067 | 0.543 ± 0.051 | 0.394 ± 0.043
13 | SUM44 BREAST | 1.28 ± 0.43 | 1.31 ± 0.53 | 1.32 ± 0.44 | 1.3 ± 0.53 | 1.28 ± 0.48 | 1.25 ± 0.48 | 1.2 ± 0.42 | 1.1 ± 0.34 | 1.05 ± 0.069 | 1.11 ± 0.19 | 1.11 ± 0.066 | 1.17 ± 0.21 | 1.04 ± 0.045 | 1.21 ± 0.17 | 1.08 ± 0.07 | 1.24 ± 0.18
14 | SG32 HEADNECK | 1.02 ± 0.13 | 0.981 ± 0.024 | 1.04 ± 0.11 | 1.17 ± 0.15 | 0.963 ± 0.025 | 1.23 ± 0.51 | 1.07 ± 0.0099 | 0.954 ± 0.045 | 1.05 ± 0.22 | 1.02 ± 0.1 | 1.07 ± 0.14 | 1.12 ± 0.17 |  | 1.67 ± 0.82 | 0.905 ± 0.23 | 0.801 ± 0.18
15 | SUM159 BREAST | 1.1 ± 0.018 | 1.1 ± 0.028 | 1.12 ± 0.027 | 1.09 ± 0.026 | 1.095 ± 0.006 | 1.09 ± 0.021 | 1.11 ± 0.018 | 1.08 ± 0.014 | 1.08 ± 0.022 | 1.13 ± 0.018 | 1.1 ± 0.037 | 1.07 ± 0.014 | 1.06 ± 0.029 | 1.1 ± 0.036 | 1.043 ± 0.01 | 1.03 ± 0.013
16 | HCC1806 BREAST | 1.06 ± 0.057 | 1.02 ± 0.15 | 1.16 ± 0.081 | 1.207 ± 0.008 | 1.17 ± 0.11 | 1.16 ± 0.067 | 1.05 ± 0.074 | 1.13 ± 0.04 | 1.01 ± 0.083 | 1.12 ± 0.028 | 1.09 ± 0.04 | 1.09 ± 0.079 | 0.992 ± 0.018 | 1.11 ± 0.033 | 0.715 ± 0.025 | 0.65 ± 0.082
17 | NY BONE | 0.986 ± 0.029 | 1.02 ± 0.032 | 1.09 ± 0.064 | 1.09 ± 0.03 | 1.07 ± 0.012 | 1.071 ± 0.0072 | 0.99 ± 0.017 | 0.957 ± 0.035 | 1.02 ± 0.025 | 1.03 ± 0.042 | 1.05 ± 0.025 | 1.1 ± 0.05 | 1 ± 0.028 | 1.1 ± 0.046 | 0.9837 ± 0.0064 | 1.04 ± 0.027
18 | RDES SOFT TISSUE | 1.26 ± 0.093 | 1.17 ± 0.053 | 1.13 ± 0.074 | 0.98 ± 0.036 | 0.765 ± 0.083 | 0.576 ± 0.034 | 0.405 ± 0.037 | 0.385 ± 0.058 |  | 1.21 ± 0.12 | 1.14 ± 0.11 | 1.13 ± 0.13 | 1.09 ± 0.053 | 1.19 ± 0.11 | 1.41 ± 0.18 | 1.55 ± 0.19
19 | SNU475 LIVER | 1.07 ± 0.017 | 1 ± 0.018 | 1.08 ± 0.083 | 1.05 ± 0.064 | 1.02 ± 0.039 | 1 ± 0.12 | 1.01 ± 0.061 | 0.972 ± 0.047 | 1.01 ± 0.013 | 1.03 ± 0.04 | 1.01 ± 0.027 | 0.992 ± 0.035 | 0.953 ± 0.042 | 1 ± 0.041 | 0.987 ± 0.047 | 0.954 ± 0.04
20 | PCI30 HEADNECK | 1.12 ± 0.029 | 1.09 ± 0.061 | 1.09 ± 0.096 | 1.07 ± 0.026 | 1.08 ± 0.023 | 1.13 ± 0.11 | 0.919 ± 0.091 | 0.909 ± 0.022 | 1.06 ± 0.033 | 1.05 ± 0.06 | 1.05 ± 0.052 | 1.06 ± 0.084 | 1.14 ± 0.063 | 1.18 ± 0.062 | 1.01 ± 0.069 | 0.989 ± 0.071
